Assay results: patent publication US10807995B2, “Thienothiophene compounds for long-acting injectable compositions and related methods” (priority 2018, dated 2020)
Several values for one entry are separate records, joined by “and”; a condition that tells them apart may be missing. Equal entries are not always repeated.

How the values were obtained:
[1] = Whole blood stability assay; assay type: in vitro ADME; settings: prodrug 50 nM in fresh pooled human whole blood, 37 degrees C.; read-out: t1/2 at 37 degrees C. in human whole blood
Procedure: Naltrexone prodrug stability was assessed using freshly collected whole blood (within 24-hr collection) from pooled human (n=3) donors. The incubation mixtures were prepared by spiking the prodrugs into pre-warmed (37 degrees C.) fresh whole blood to a final concentration of 50 nM. After gentle mixing, aliquots of incubation mixtures were immediately transferred into four different 96-deep well plates. One plate was used for each time point. The plates were incubated at 37 degrees C. at a shaking speed of 100 rpm. At time points 15, 30, 60 and 120 minutes, the reaction was quenched by addition of a mixture of water and acetonitrile containing the internal standard (naltrexone-D3). Time point 0 minutes was prepared separately by spiking the prodrugs into a quenched whole blood to obtain a final concentration of 50 nM. All samples were vortexed at a low speed for 15 min and centrifuged at 3900 rpm for 15 min. Supernatants were transferred into 96-well plates for LC-MS/MS analysis to monitor the depletion of the prodrugs and the formation of naltrexone.
The amount of remaining prodrug and released naltrexone for each sample was quantitated against the calibration curves prepared with the whole blood. The human whole blood was purchased from BioreclamationIVT (Westbury, N.Y., USA). Naltrexone-D3 was purchased from Cerilliant® (Round Rock, Tex., USA). […] Where multiple runs have been completed, average values are reported.

[2] = Pharmacokinetic evaluation of the release of naltrexone from Compound 3 in rats following a single intramuscular injection; assay type: in vivo, Sprague-Dawley rats; settings: for Compound 3 conc.: plasma of individual rats (Rat 1-6)
Procedure: Six male Sprague-Dawley rats were allowed to acclimate to the test facility for at least 3 days prior to study start. For dose administration of Compound 3, the rats were lightly anesthetized with isofluorane, the hind leg shaved and dosed intramuscularly with the formulation using a 20 G needle. […] Serial whole blood samples were collected via sublingual route (˜150 μL) at 1, 8, and 24 hours post dose, and at 2, 4, 7, 10, 15, 22, 24, 28, 35, 42, 49, 56 and 63 days post dose.
Blood samples were placed into K2EDTA blood collection tubes. After collection, blood samples were maintained chilled (on wet ice) and centrifuged (11,500 rpm for 2 minutes at 5 degrees C.) within 30 minutes to obtain plasma. Plasma was transferred into a single vial, 1.5 mL screw cap micro-centrifuge tube with inserts and stored at −80 degrees C. until analysis.
The formulation dosed was a crystalline suspension of Compound 3 (44.4 milligrams of Compound 3 dosed per animal), wherein the crystalline test article was characterized with a particle size distribution of Dv10=1.6 μm, Dv50=4.1 μm, and Dv90=7.7 μm (as measured via laser diffraction). The formulation was prepared the day before dosing. Details of the formulation dosed are described in Table D below.
Results of the above intramuscular rat study of Compound 3 are shown in Tables E and F. In particular, Table E reports the average blood plasma levels of naltrexone in rat (n=6) over 63 days following intramuscular administration.

[3] = rat plasma over 63 days after single IM Compound 3

SMILES: O=C(Cc1csc2c(CC(=O)Oc3ccc4c5c3O[C@H]3C(=O)CC[C@@]6(O)[C@@H](C4)N(CC4CC4)CC[C@]536)csc12)Oc1ccc2c3c1O[C@H]1C(=O)CC[C@@]4(O)[C@@H](C2)N(CC2CC2)CC[C@]314 [Compound 6, bis((4R,4aS,7aR,12bS)-3-(cyclopropylmethyl)-4a-hydroxy-7-oxo-2,3,4,4a,5,6,7,7a-octahydro-1H-4,12-methanobenzofuro[3,2-e]isoquinolin-9-yl) 2,2′-(thieno[3,2-b]thiophene-3,6-diyl)diacetate]
- half-life at 50 nM [1]: 11 min

SMILES: O=C(Oc1ccc2c3c1O[C@H]1C(=O)CC[C@@]4(O)[C@@H](C2)N(CC2CC2)CC[C@]314)c1ccc(C(=O)Oc2ccc3c4c2O[C@H]2C(=O)CC[C@@]5(O)[C@@H](C3)N(CC3CC3)CC[C@]425)cc1 [Reference Compound A, NTX-3-terephthaloyl-NTX, reference compound]
- half-life at 50 nM [1]: 54.7 min

SMILES: O=C(CCc1cc2sc(CCC(=O)Oc3ccc4c5c3O[C@H]3C(=O)CC[C@@]6(O)[C@@H](C4)N(CC4CC4)CC[C@]536)cc2s1)Oc1ccc2c3c1O[C@H]1C(=O)CC[C@@]4(O)[C@@H](C2)N(CC2CC2)CC[C@]314 [Compound 5, bis((4R,4aS,7aR,12bS)-3-(cyclopropylmethyl)-4a-hydroxy-7-oxo-2,3,4,4a,5,6,7,7a-octahydro-1H-4,12-methanobenzofuro[3,2-e]isoquinolin-9-yl) 3,3′-(thieno[3,2-b]thiophene-2,5-diyl)dipropionate]
- half-life at 50 nM [1]: 17.1 min

SMILES: Cc1c(CC(=O)Oc2ccc3c4c2O[C@H]2C(=O)CC[C@@]5(O)[C@@H](C3)N(CC3CC3)CC[C@]425)sc2c(C)c(CC(=O)Oc3ccc4c5c3O[C@H]3C(=O)CC[C@@]6(O)[C@@H](C4)N(CC4CC4)CC[C@]536)sc12 [Compound 4, bis((4R,4aS,7aR,12bS)-3-(cyclopropylmethyl)-4a-hydroxy-7-oxo-2,3,4,4a,5,6,7,7a-octahydro-1H-4,12-methanobenzofuro[3,2-e]isoquinolin-9-yl) 2,2′-(3,6-dimethylthieno[3,2-b]thiophene-2,5-diyl)diacetate]
- half-life at 50 nM [1]: 20.7 min

SMILES: O=C(Cc1cc2cc(CC(=O)Oc3ccc4c5c3O[C@H]3C(=O)CC[C@@]6(O)[C@@H](C4)N(CC4CC4)CC[C@]536)sc2s1)Oc1ccc2c3c1O[C@H]1C(=O)CC[C@@]4(O)[C@@H](C2)N(CC2CC2)CC[C@]314 [Compound 1, bis((4R,4aS,7aR,12bS)-3-(cyclopropylmethyl)-4a-hydroxy-7-oxo-2,3,4,4a,5,6,7,7a-octahydro-1H-4,12-methanobenzofuro[3,2-e]isoquinolin-9-yl) 2,2′-(thieno[2,3-b]thiophene-2,5-diyl)diacetate]
- half-life at 50 nM [1]: 11 min

SMILES: O=C(Cc1cc2sc(CC(=O)Oc3ccc4c5c3O[C@H]3C(=O)CC[C@@]6(O)[C@@H](C4)N(CC4CC4)CC[C@]536)cc2s1)Oc1ccc2c3c1O[C@H]1C(=O)CC[C@@]4(O)[C@@H](C2)N(CC2CC2)CC[C@]314 [Compound 3, bis((4R,4aS,7aR,12bS)-3-(cyclopropylmethyl)-4a-hydroxy-7-oxo-2,3,4,4a,5,6,7,7a-octahydro-1H-4,12-methanobenzofuro[3,2-e]isoquinolin-9-yl) 2,2′-(thieno[3,2-b]thiophene-2,5-diyl)diacetate]
- conversion of Compound 3 to naltrexone ([2]; in rats over 63 days): efficient conversion
- Compound 3 conc. ([2]; single IM Compound 3, day 0.042 (1 hr)): <0.1 ng/mL
- Compound 3 conc. ([2]; single IM Compound 3, day 0.33 (8 hr)): <0.1 ng/mL
- Compound 3 conc. ([2]; single IM Compound 3, day 1): <0.1 ng/mL
- Compound 3 conc. ([2]; single IM Compound 3, day 2): <0.1 ng/mL
- Compound 3 conc. ([2]; single IM Compound 3, day 4): <0.1 ng/mL
- Compound 3 conc. ([2]; single IM Compound 3, day 7): <0.1 ng/mL (5×) and 0.161 ng/mL
- Compound 3 conc. ([2]; single IM Compound 3, day 10): <0.1 ng/mL
- Compound 3 conc. ([2]; single IM Compound 3, day 15): <0.1 ng/mL
- Compound 3 conc. ([2]; single IM Compound 3, day 22): <0.1 ng/mL
- Compound 3 conc. ([2]; single IM Compound 3, day 24): <0.1 ng/mL
- Compound 3 conc. ([2]; single IM Compound 3, day 28): <0.1 ng/mL
- Compound 3 conc. ([2]; single IM Compound 3, day 35): <0.1 ng/mL
- Compound 3 conc. ([2]; single IM Compound 3, day 42): <0.1 ng/mL (5×) and 0.128 ng/mL
- Compound 3 conc. ([2]; single IM Compound 3, day 49): 0.134 ng/mL and 0.131 ng/mL and 0.138 ng/mL and <0.1 ng/mL (2×) and 0.143 ng/mL
- Compound 3 conc. ([2]; single IM Compound 3, day 56): 2.02 ng/mL and 0.753 ng/mL and 0.501 ng/mL and 0.281 ng/mL and 0.245 ng/mL and 0.237 ng/mL
- Compound 3 conc. ([2]; single IM Compound 3, day 63): 0.184 ng/mL and 0.229 ng/mL and 0.223 ng/mL and 0.234 ng/mL and 0.255 ng/mL and 0.207 ng/mL
- concentrations of parent Compound 3 [2, 3]: generally low to not measurable
- half-life at 50 nM [1]: 6.46 min

SMILES: O=C(Cc1csc2scc(CC(=O)Oc3ccc4c5c3O[C@H]3C(=O)CC[C@@]6(O)[C@@H](C4)N(CC4CC4)CC[C@]536)c12)Oc1ccc2c3c1O[C@H]1C(=O)CC[C@@]4(O)[C@@H](C2)N(CC2CC2)CC[C@]314 [Compound 2, bis((4R,4aS,7aR,12bS)-3-(cyclopropylmethyl)-4a-hydroxy-7-oxo-2,3,4,4a,5,6,7,7a-octahydro-1H-4,12-methanobenzofuro[3,2-e]isoquinolin-9-yl) 2,2′-(thieno[2,3-b]thiophene-3,4-diyl)diacetate]
- half-life at 50 nM [1]: 15.7 min

SMILES: O=C(O)Cc1cc2sc(CC(=O)Oc3ccc4c5c3O[C@H]3C(=O)CC[C@@]6(O)[C@@H](C4)N(CC4CC4)CC[C@]536)cc2s1 [Compound 3i, 2-(5-(2-(((4R,4aS,7aR,12bS)-3-(cyclopropylmethyl)-4a-hydroxy-7-oxo-2,3,4,4a,5,6,7,7a-octahydro-1H-4,12-methanobenzofuro[3,2-e]isoquinolin-9-yl)oxy)-2-oxoethyl)thieno[3,2-b]thiophen-2-yl)acetic acid]
- concentrations of the resultant intermediate Compound 3i [2, 3]: generally low to not measurable
- Compound 3i conc. ([2]; resultant intermediate in plasma of individual rats (Rat 1-6) after single IM Compound 3, day 2): <0.2 ng/mL
- Compound 3i conc. ([2]; resultant intermediate in plasma of individual rats (Rat 1-6) after single IM Compound 3, day 4): <0.2 ng/mL
- Compound 3i conc. ([2]; resultant intermediate in plasma of individual rats (Rat 1-6) after single IM Compound 3, day 7): <0.2 ng/mL
- Compound 3i conc. ([2]; resultant intermediate in plasma of individual rats (Rat 1-6) after single IM Compound 3, day 10): <0.2 ng/mL
- Compound 3i conc. ([2]; resultant intermediate in plasma of individual rats (Rat 1-6) after single IM Compound 3, day 15): <0.2 ng/mL
- Compound 3i conc. ([2]; resultant intermediate in plasma of individual rats (Rat 1-6) after single IM Compound 3, day 22): <0.2 ng/mL
- Compound 3i conc. ([2]; resultant intermediate in plasma of individual rats (Rat 1-6) after single IM Compound 3, day 24): <0.2 ng/mL
- Compound 3i conc. ([2]; resultant intermediate in plasma of individual rats (Rat 1-6) after single IM Compound 3, day 28): <0.2 ng/mL
- Compound 3i conc. ([2]; resultant intermediate in plasma of individual rats (Rat 1-6) after single IM Compound 3, day 35): <0.2 ng/mL
- Compound 3i conc. ([2]; resultant intermediate in plasma of individual rats (Rat 1-6) after single IM Compound 3, day 42): <0.2 ng/mL (4×) and 0.805 ng/mL and 0.149 ng/mL
